Test results taken from publication PMC12349723, “Computationally accelerated identification of P-glycoprotein inhibitors” (PLOS One, 2025).
Several values for one entry are separate records, joined by “and”; a condition that tells them apart may be missing. Equal values may be shown once. Read-outs that look alike come from different tables or passages of the source.

How the values were obtained:
[1] = SWISS-ADME computational analysis of chemical properties; settings: predicted aqueous solubility compared to that observed in the laboratory
From the text: (§1) Identifying P-gp inhibitors that are not transport substrates remains inherently challenging. To that end, computational tools such as the SWISS-ADME server attempt to use a molecule’s unique chemical and structural characteristics to predict whether it is likely to be a P-gp transport substrate. Our LC-MS/MS assays allowed us to retroactively test the validity of predictions from SWISS-ADME. […] Alternative identifiers for the molecules identified in this study are shown in S7 Table.
(§2) S1 Table. Known P-gp Inhibitors and Predicted Chemical Properties. A non-exhaustive list of known P-gp inhibitors and their selected chemical properties ^[64, 65]. Clinical trial outcomes were adapted from ^[10, 11]. Compounds were evaluated using the SWISS-ADME server ^[54]. […] “Predicted P-gp Substrate” - predicted by SWISS-ADME to be a transport substrate of P-gp. “Known P-gp Substrate” – In addition to being P-gp inhibitors, these molecules are: known transport substrates of P-gp, known non-transport substrates of P-gp, unknown whether it is a transport substrate of P-gp ^[66-68]. If the molecule is designated in a specific generation of P-gp inhibitors - First Generation P-gp inhibitors, Second generation P-gp inhibitors, Third generation P-gp inhibitors.

[2] = test system: P-gp; test: SWISS-ADME prediction of P-gp transport substrate; settings: prediction compared to the LC-MS/MS intracellular accumulation data
From the text: as §1, §2

[3] = test system: DU145 cells; test: MTT viability assay, non-P-gp overexpressing DU145 parental line, with or without PTX; type: cell-based, human; settings: for viability at 15 µM: Homo sapiens, DU-145, 48 h; for Sensitization of DU145 cells to PTX: 15 µM compound + PTX vs PTX alone
Method: The chemotherapeutic sensitive DU145 human prostate cancer cells and the multidrug resistant sub-line, DU145-TXR, were generous gifts from Dr. Evan Keller (University of Michigan, Ann Arbor, MI). The MDR, P-gp overexpressing DU145-TXR cells were maintained under positive selection pressure by supplementing complete medium with 10 nM paclitaxel (Acros Organics, NJ). […] The MDR, P-gp overexpressing A2780-ADR cell line was maintained under positive selection pressure by supplementing complete medium with 100 nM doxorubicin (Fisher Scientific, NJ). The non-cancerous HFL1 (human lung fibroblast) cell line cell line was a generous gift from Dr. Robert Harrod (Southern Methodist University, Dallas, TX) and was maintained in complete F12K media consisting of F12K with 10% fetal bovine serum, 100 U/mL penicillin, and 100 µg/mL streptomycin (Gibco). Flasks and 96 well plates that were used with the non-cancerous line HFL1 were pre-treated with 0.1 mg/ml Collagen Type 1 (Gibco) and rinsed with PBS (Fisher).
Culture of the DU145, DU145-TXR, and HFL1 cell lines was performed as described in [8]. Culture of the A2780 and A2780-ADR cell lines was performed as described in [9]. MTT assays were performed as described in [8] with minor modifications. […] Data represent the mean of two separate experiments, with n = 3 samples per experiment (n = 6 total) (S4 Table).
MTT assays measure the reduction of yellow, water soluble 3-(4,5-dimethylthiazol-2-yl)-2,5-diphenyltetrazolium bromide (MTT) to blue, insoluble formazan crystals by cellular reductase processes in living cells. Cells were trypsinized from monolayers and seeded in complete medium in 96 well plates. Cancerous cell lines (DU145, DU145-TXR, A2780, A2780-ADR) were seeded at 3,000 cells per well in complete RPMI medium. The non-cancerous HFL1 line was seeded at 4,000 cells per well in complete F12K medium, in collagen-treated plates (Collagen Type 1, Gibco). Cells were incubated with experimental compounds for 48 hours at 37 °C and 5% CO2 in a humidified incubator. At 48 hours, MTT was added (20 µL/well of 5 mg/mL MTT in PBS) to each well. After incubation for 4 hours, the media was removed, and the formazan crystals were dissolved in 100 µL DMSO per well. Plates containing the semi-adherent A2780 or A2780-ADR lines were spun at 1400 rpm for 3 minutes prior to aspiration of media, and the addition of DMSO. Plates were shaken for 10 minutes at 500 rpm on an Orbital shaker (LabDoctor from MidSci, St Louis, MO). The absorbance was measured at 570 nm using a Bio-Tek Cytation 5 (Bio-Tek, Winooski, VT). The measured absorbance value was correlated with the number of metabolically active cells in that well, corrected for absorbance of media. The percent of cell viability (termed ‘survival’ here) was calculated as a percentage of survival of the control condition, which refers to vehicle-treated (DMSO as vehicle) cells, or vehicle-and-chemotherapeutic-treated cells, if testing a compound’s ability to re-sensitize cells to a chemotherapeutic. Percent survival was calculated using the following equation:
% Survival=100 × absorbance of experimental cells/mean absorbance of control treated cells
For DU145-TXR, DU145, HFL1 and A2780 cells – data are the mean ± one standard deviation, 8 samples per compound, from at least two independent trials per compound. […] For A2780-ADR cells, data are the mean ± one standard deviation with 12 samples per compound, from at least two independent trials per compound.
67 compounds were chosen from computational screens for testing in vitro. A) DU145-TXR cells were exposed to 15 µM experimental compound with or without 500 nM of the P-gp substrate and chemotherapeutic paclitaxel (PTX).

[4] = DU145 cells, 48 h, mean of 8 samples
[5] = DU145 cells, 48 h, mean of 8 samples, read-out: % Survival, Mean, 15 µM Compound alone
[6] = DU145 cells, 48 h, single samples, 2 trials x 4 samples
[7] = DU145 cells, 48 h, single samples, 2 trials x 4 samples, read-out: % Survival, 15 µM Compound alone (individual samples)

Row | SMILES | Correct Water Solubility Prediction? [1] | Correct P-gp Substrate Prediction? [2] | % Survival, Mean, 15 µM compound + 500 nM PTX [3, 4] | viability at 15 µM [3, 5] | Sensitization of DU145 cells to PTX [3] | % Survival, 15 µM Compound alone (individual samples) [3, 6] | % Survival, 15 µM compound + 500 nM PTX (individual samples) [3, 6] | viability at 15 µM [3, 7] | % Survival, Mean, 15 µM Compound alone [3, 4]
1 | Cn1cnnc1SCc1c(C(=O)O)nnn1-c1nonc1N [Compound 59, Cn1cnnc1SCc1c(nnn1-c1nonc1N)C(O)=O] | Yes | – | – | – | – | – | – | – | –
2 | Nc1nonc1-n1nnc(C(=O)N/N=C/c2c3ccccc3cc3ccccc23)c1COc1ccc(F)cc1 [Compound 60, Nc1nonc1-n1nnc(C(=O)N\N=C\c2c3ccccc3cc3ccccc23)c1COc1ccc(F)cc1] | No | No | – | – | – | – | – | – | –
3 | CCN1CCN(Cc2c(C(=O)N/N=C3/C(=O)N(C)c4ccccc43)nnn2-c2nonc2N)CC1 [Compound 61, CCN1CCN(Cc2c(nnn2-c2nonc2N)C(=O)N\N=C2\C(=O)N(C)c3ccccc23)CC1] | No | Yes | 14.3% | 55.6% | – | – | – | – | –
4 | O=C(c1cc2ccccc2[nH]1)N1CCN(S(=O)(=O)c2cccc3nonc23)CC1 [Compound 66, O=C(N1CCN(CC1)S(=O)(=O)c1cccc2nonc12)c1cc2ccccc2[nH]1] | Yes | No | – | – | – | – | – | – | –
5 | O=C(c1nc(-c2ccc3cc[nH]c3c2)no1)N1CCN(c2nsc3ccccc23)CC1 [Compound 70, O=C(N1CCN(CC1)c1nsc2ccccc12)c1nc(no1)-c1ccc2cc[nH]c2c1] | Yes | No | 30.5% | 84.7% | insignificantly sensitize DU145 cells to PTX | 88% | 32% and 30% | – | –
6 | COc1ccc(OC)c(NC(=O)c2nnn(-c3ccc4noc(-c5ccccc5)c4c3)c2C)c1 [Compound 71, COc1ccc(OC)c(NC(=O)c2nnn(c2C)-c2ccc3noc(-c4ccccc4)c3c2)c1] | Yes | No | – | – | – | – | – | – | –
7 | Cc1onc(-c2ccccc2)c1-c1nnc(Cn2cnc3c(oc4ccccc43)c2=O)o1 [Compound 78, Cc1onc(c1-c1nnc(Cn2cnc3c4ccccc4oc3c2=O)o1)-c1ccccc1] | Yes | No | 33.6% | 89.2% | insignificantly sensitize DU145 cells to PTX | 94% | 31% | – | –
8 | NS(=O)(=O)c1cccc(NC(=O)CSc2nnnn2C2CC2)c1 [Compound 89, NS(=O)(=O)c1cccc(NC(=O)CSc2nnnn2C2CC2)c1] | Yes | – | – | – | – | – | – | – | –
9 | O=S(=O)(CCSc1nnc(-c2ccccc2)c2ccccc12)c1ccccc1 [Compound 96, O=S(=O)(CCSc1nnc(-c2ccccc2)c2ccccc12)c1ccccc1] | No | Yes | 28.8% | 77% | insignificantly sensitize DU145 cells to PTX | 65% | 26% | – | –
10 | O=S(=O)(Cc1nc2ccccc2n1CC(O)c1ccc(Cl)cc1)c1ccccc1 (stereo not drawn) [Compound 97, OC(Cn1c(CS(=O)(=O)c2ccccc2)nc2ccccc12)c1ccc(Cl)cc1] | Yes | Yes | 23.9% | 73.5% | insignificantly sensitize DU145 cells to PTX | 72% | – | – | –
11 | COc1cccc(N2CCN(c3ccc4nnc(CCC(=O)Nc5ccc(F)c(F)c5)n4n3)CC2)c1 [Compound 101, COc1cccc(c1)N1CCN(CC1)c1ccc2nnc(CCC(=O)Nc3ccc(F)c(F)c3)n2n1] | Yes | No | 24.0% | 89.9% | insignificantly sensitize DU145 cells to PTX | 89% | – | 92% | –
12 | Cc1ccc(-c2noc(-c3cn(Cc4ccc(NS(=O)(=O)c5ccccc5F)cc4)cn3)n2)cc1 [Compound 103, Cc1ccc(cc1)-c1noc(n1)-c1cn(Cc2ccc(NS(=O)(=O)c3ccccc3F)cc2)cn1] | No | No | 29.4% | 77.7% | insignificantly sensitize DU145 cells to PTX | – | – | – | –
13 | Cc1onc(-c2ccccc2)c1-c1nnc(Cn2cnc3ccccc3c2=O)o1 [Compound 111, Cc1onc(c1-c1nnc(Cn2cnc3ccccc3c2=O)o1)-c1ccccc1] | Yes | No | 19.3% | 73.5% | insignificantly sensitize DU145 cells to PTX | 72% | – | 80% | –
14 | O=C(NCc1cccc(F)c1)c1nnn2c1Sc1c(C(=O)NCc3cccc(F)c3)nnn1CC2 [Compound 122, Fc1cccc(CNC(=O)c2nnn3CCn4nnc(C(=O)NCc5cccc(F)c5)c4Sc23)c1] | Yes | Yes | 19.4% | 60.9% | insignificantly sensitize DU145 cells to PTX | – | – | – | –
15 | COc1ccc2c3c([nH]c2c1)[C@H](CC(C)C)N1C(=O)[C@H](CCC(=O)OC(C)(C)C)NC(=O)[C@@H]1C3 [Ko143, reference compound] | – | – | 20.1% | – | – | 89% and 88% and 53% and 50% and 46% and 42% and 86% and 91% | 12% and 13% and 16% and 22% and 23% and 24% and 25% | – | 68.1%
16 | COc1cc2c(cc1OC)CN(CCc1ccc(NC(=O)c3cc(OC)c(OC)cc3NC(=O)c3cnc4ccccc4c3)cc1)CC2 [Tariquidar, reference compound] | – | – | 12.0% | 86.1% | – | – | – | – | –
